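Dose response: 5 concentrations. Exposure: 48 h. Format: 96-well plates. Endpoint: linear interpolation; highest concentration if not reached. GI50 = concentration required for 50% inhibition of growth. At the TGI there is no net growth.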
Columns and labels:
Assay in all cases: inhibition of tumour cell growth, NCI panel, 48 h
HT29 colon = test system: HT29 colon
UACC-257 melanoma = test system: UACC-257 melanoma
KM12 colon = test system: KM12 colon
A549 NSCLC = test system: A549 NSCLC
786-0 renal = test system: 786-0 renal
OVCAR-8 ovarian = test system: OVCAR-8 ovarian
EKVX NSCLC = test system: EKVX NSCLC
HCC-2998 colon = test system: HCC-2998 colon
OVCAR-5 ovarian = test system: OVCAR-5 ovarian
SK-MEL-5 melanoma = test system: SK-MEL-5 melanoma
MDA-MB-231 breast = test system: MDA-MB-231 breast
SF-268 CNS = test system: SF-268 CNS
HCT-116 colon = test system: HCT-116 colon
OVCAR-4 ovarian = test system: OVCAR-4 ovarian
DU-145 prostate = test system: DU-145 prostate
CAKI-1 renal = test system: CAKI-1 renal
SK-MEL-2 melanoma = test system: SK-MEL-2 melanoma
M14 melanoma = test system: M14 melanoma
SN12C renal = test system: SN12C renal
NCI-H522 lung = test system: NCI-H522 lung
SW-620 colon = test system: SW-620 colon
RPMI-8226 leukemia = test system: RPMI-8226 leukemia
NCI-H226 lung = test system: NCI-H226 lung
U251 CNS = test system: U251 CNS
MDA-MB-435 = test system: MDA-MB-435
CCRF-CEM leukemia = test system: CCRF-CEM leukemia
RXF 393 renal = test system: RXF 393 renal
TK-10 renal = test system: TK-10 renal
IGROV1 ovarian = test system: IGROV1 ovarian

COc1cccc(CC(C)=C(c2ccc(OCCN3CCCCC3)cc2)c2ccc(OCCN3CCCCC3)cc2)c1
GI50 (HT29 colon): 0.82 µM
TGI (HT29 colon): 2.79 µM
GI50 (UACC-257 melanoma): 2.14 µM
TGI (UACC-257 melanoma): 4.33 µM
GI50 (KM12 colon): 1.93 µM
TGI (KM12 colon): 4.11 µM
GI50 (A549 NSCLC): 2.2 µM
TGI (A549 NSCLC): 4.35 µM
GI50 (786-0 renal): 1.87 µM
TGI (786-0 renal): 3.89 µM
GI50 (OVCAR-8 ovarian): 2.3 µM
TGI (OVCAR-8 ovarian): 4.81 µM
GI50 (EKVX NSCLC): 2.03 µM
TGI (EKVX NSCLC): 4.48 µM
GI50 (HCC-2998 colon): 1.74 µM
TGI (HCC-2998 colon): 3.72 µM
GI50 (OVCAR-5 ovarian): 2.02 µM
TGI (OVCAR-5 ovarian): 3.99 µM
GI50 (SK-MEL-5 melanoma): 2.23 µM
TGI (SK-MEL-5 melanoma): 4.17 µM
GI50 (MDA-MB-231 breast): 1.92 µM
TGI (MDA-MB-231 breast): 4.02 µM
GI50 (SF-268 CNS): 2.08 µM
TGI (SF-268 CNS): 4.32 µM
GI50 (HCT-116 colon): 2.25 µM
TGI (HCT-116 colon): 4.26 µM
GI50 (OVCAR-4 ovarian): 1.95 µM
TGI (OVCAR-4 ovarian): 4.03 µM
GI50 (DU-145 prostate): 2.11 µM
TGI (DU-145 prostate): 4.26 µM
GI50 (CAKI-1 renal): 2.3 µM
TGI (CAKI-1 renal): 4.29 µM
GI50 (SK-MEL-2 melanoma): 2.73 µM
TGI (SK-MEL-2 melanoma): 5.71 µM
GI50 (M14 melanoma): 1.67 µM
TGI (M14 melanoma): 3.76 µM
GI50 (SN12C renal): 2.02 µM
TGI (SN12C renal): 4.04 µM
GI50 (NCI-H522 lung): 2.16 µM
TGI (NCI-H522 lung): 4.53 µM
GI50 (SW-620 colon): 1.74 µM
TGI (SW-620 colon): 3.78 µM
GI50 (RPMI-8226 leukemia): 1.62 µM
TGI (RPMI-8226 leukemia): 4.41 µM
GI50 (NCI-H226 lung): 2.33 µM
TGI (NCI-H226 lung): 5.12 µM
GI50 (U251 CNS): 1.81 µM
TGI (U251 CNS): 3.7 µM
GI50 (MDA-MB-435): 1.67 µM
TGI (MDA-MB-435): 3.57 µM
GI50 (CCRF-CEM leukemia): 1.71 µM
TGI (CCRF-CEM leukemia): 4.73 µM
GI50 (RXF 393 renal): 0.916 µM
TGI (RXF 393 renal): 2.88 µM
GI50 (TK-10 renal): 2.36 µM
TGI (TK-10 renal): 4.54 µM
GI50 (IGROV1 ovarian): 1.89 µM
TGI (IGROV1 ovarian): 3.99 µM

Reference: PubChem BioAssay (NCI)
